Data from PMC4403932 (Journal of Medicinal Chemistry, 2015).
“Also recorded” adds a separate entry of the source.

Legend:
BAZ2B = biological target: T1, BAZ2B (Homo sapiens, UniProt Q9UIF8); assay: Protein stability (thermal) shift assay, BAZ2B; assay type: binding; settings: compound 10 μM, protein 2 μM; average of triplicate; read-out: ΔTm Shift, BAZ2BA
T1 construct: representative BRDs from other structural subfamilies (family I, PCAF); family III, CREBBP; family IV, BRD9; family V, BAZ2B; made in house
T1 sequence (Q9UIF8 2060-2164 limits assumed): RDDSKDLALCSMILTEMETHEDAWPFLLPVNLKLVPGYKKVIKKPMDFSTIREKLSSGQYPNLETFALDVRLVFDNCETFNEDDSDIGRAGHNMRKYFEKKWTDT

full length BRD4 = biological target: T2, full length BRD4 (Homo sapiens, UniProt O60885); assay: NanoBRET assay, NanoLuc-BRD4 full-length / histone H3.3-HaloTag in HEK293 cells; assay type: cell-based; settings: up to 33 μM, 18 h
T2 construct: NanoLuc-fused full length BRD4 (UniProt code O60885); expressed in transfected cells; host or cells: HEK293
Description: Twenty hours post-transfection 2 × 10^4 cells were trypsinized, washed with PBS, and exchanged into media containing phenol red-free DMEM, 10% FBS in the absence (control sample), or the presence (experimental sample) of 100 nM NanoBRET 618 fluorescent ligand (Promega). Cell density was adjusted to 2 × 10^5 cells/mL and then replated in a 96-well assay white plate (Corning Costar no. 3917). At the time of replating compound 7d or 11 were added at a final concentration spanning from 0.005 to 33 μM and the plates were incubated for 18 h at 37 °C in the presence of 5% CO2. NanoBRET substrate (Promega) was added to both control and experimental samples at a final concentration of 10 μM. Readings were performed within 5 min using the CLARIOstar reader (BMG Lifetechnologies) equipped with 450/80 nm bandpass and 610 nm long-pass filters. A corrected BRET ratio was calculated and is defined as the ratio of the emission at 610 nm/450 nm for experimental samples (i.e., those treated with NanoBRET fluorescent ligand) subtracted by and the emission at 610 nm/450 nm for control samples (not treated with NanoBRET fluorescent). BRET ratios are expressed as milliBRET units (mBU), where 1 mBU corresponds to the corrected BRET ratio multiplied by 1000.

Row | ΔTm at 10 µM (BAZ2B) [°C] | Compound | displacement of full-length BRD4 from histone H3.3 (in words) (full length BRD4)
1 | 0.237 | COc1ccc(Br)cc1-c1nc(N)nc2[nH]cnc12 [Compound 7d, 2-Amino-6-(5-bromo-2-methoxyphenyl)-9H-purine] | fail to elicit the same effect; also recorded: not completely displaced; also recorded: failing to displace
2 | 0.37 | Nc1nc(-c2cc(Br)cc3c2OCC3)c2nc[nH]c2n1 [Compound 11, 2-Amino-6-(5-bromo-2,3-dihydrobenzo[b]furan-7-yl)-9H-purine] | fail to elicit the same effect; also recorded: not completely displaced; also recorded: failing to displace
